Data taken from patent US6864249B2, “Piperidine and azetidine thrombin inhibitors” (LG Life Sciences, Ltd., priority 1998, dated 2005).
Where a name gives a salt, the structure may show the parent alone.

Biological target: T1, Thrombin prepared from human plasma (Homo sapiens, UniProt P00734)
T1 construct: Thrombin used in this test was prepared from human plasma; from tissue; host or cells: human plasma
Test: In vitro enzyme assay for thrombin inhibition constants (Chromozym TH substrate, Dixon plot)
Assay type: biochemical
Details: pH 7.8, room temperature
Method: In vitro Enzyme Assays for Determining Inhibition Constants
The activity of thrombin was measured spectrophotometrically using tosyl-Gly-Pro-Arg-p-nitroanilide acetate (Chromozym TH, Boehringer Mannheim) as a substrate. […] Each compound was dissolved in DMSO to make a 1 mM stock solution and dilutions were made thereof with assay buffer (0.1 M Tris HCl, 0.15 M NaCl, 0.1% polyethylene glycol 8000, pH 7.8). Different concentrations of inhibitor were mixed with […] of thrombin in 0.8 mL of the buffer. The mixture was incubated for 10 min at room temperature before adding 0.2 mL of the substrate to a final concentration of 20 μM. […] A graph for the reciprocal value of initial velocity to the inhibitor concentration was derived from progress curves by fitting the data using a linear regression program.

In the case of NCc1ccc(CNC(=O)[C@@H]2CCCN2C(=O)[C@H](NS(N)(=O)=O)C(c2ccccc2)c2ccccc2)s1 [Example 2, N-aminosulfonyl-D-diphenylalanyl-L-prolyl-[(5-aminomethyl-2-thienyl)methyl]amide.HCl], the Ki is reported as 4700 pM.

With CS(=O)(=O)N[C@@H](C(=O)N1CCC[C@H]1C(=O)NCc1ccc(/C(N)=N/N)s1)C(c1ccccc1)c1ccccc1 [Example 4, N-methylsulfonyl-D-diphenylalanyl-L-prolyl-[(5-amidrazono-2-thienyl)methyl]amide.TFA] the Ki was 530 pM.

N=C(N)c1ccc(CNC(=O)[C@@H]2CCCN2C(=O)[C@H](NS(=O)(=O)Cc2ccccc2)C(c2ccccc2)c2ccccc2)s1 [Example 6, N-benzylsulfonyl-D-diphenylalanyl-L-prolyl-[(5-amidino-2-thienyl)methyl]amide.TFA] showed a Ki of 21 pM.

In the case of CC(C)(C)OC(=O)N[C@@H](C(=O)N1CCC[C@H]1C(=O)NCc1ccc(C(=N)N)s1)C(c1ccccc1)c1ccccc1 [Example 7, N-t-butoxycarbonyl-D-diphenylalanyl-L-prolyl-[(5-amidino-2-thienyl)methyl]amide.TFA], the Ki is reported as 7 pM.

N=C(N)c1ccc(CNC(=O)[C@@H]2CCCN2C(=O)[C@@H](Cc2ccc(Cl)c(Cl)c2)NS(N)(=O)=O)s1 [Example 9, N-aminosulfonyl-D-3,4-dichlorophenylalanyl-L-prolyl-[(5-amidino-2-thienyl)methyl]amide.TFA] showed a Ki of 65 pM.

With COC(=O)N[C@@H](C(=O)N1CCC[C@H]1C(=O)NCc1ccc(C(=N)N)s1)C(C1CCCCC1)C1CCCCC1 [Example 10, N-methoxycarbonyl-D-dicyclohexylalanyl-L-prolyl-[(5-amidino-2-thienyl)methyl]amide.TFA] the Ki was 52 pM.

Work on CS(=O)(=O)N[C@@H](C(=O)N1CCC[C@H]1C(=O)NCc1cc(C(=N)N)cs1)C(c1ccccc1)c1ccccc1 [Example 12, N-methylsulfonyl-D-diphenylalanyl-L-prolyl-[(4-amidino-2-thienyl)methyl]amide.TFA] yielded a Ki of 40 pM.

Work on CS(=O)(=O)N[C@@H](C(=O)N1CCC[C@H]1C(=O)NCc1cc(CN)cs1)C(c1ccccc1)c1ccccc1 [Example 13, N-methylsulfonyl-D-diphenylalanyl-L-prolyl-[(4-aminomethyl-2-thienyl)methyl]amide.HCl] yielded a Ki of 73 pM.

CS(=O)(=O)N[C@@H](C(=O)N1CCC[C@H]1C(=O)NCc1csc(C(=N)N)c1)C(c1ccccc1)c1ccccc1 [Example 16, N-methylsulfonyl-D-diphenylalanyl-L-prolyl-[(5-amidino-3-thienyl)methyl]amide.TFA] gave a Ki of 45 pM.

Work on CS(=O)(=O)N[C@@H](C(=O)N1CCC[C@H]1C(=O)NCc1csc(C(=N)NN)c1)C(c1ccccc1)c1ccccc1 [Example 17, N-methylsulfonyl-D-diphenylalanyl-L-prolyl-[(5-amidrazono-3-thienyl)methyl]amide.TFA] yielded a Ki of 410 pM.

CS(=O)(=O)N[C@@H](C(=O)N1CCC[C@H]1C(=O)NCc1csc(CN)c1)C(c1ccccc1)c1ccccc1 [Example 18, N-methylsulfonyl-D-diphenylalanyl-L-prolyl-[(5-aminomethyl-3-thienyl)methyl]amide.TFA] showed a Ki of 6210 pM.

Compound N=C(N)c1ccc(CNC(=O)[C@@H]2CCCN2C(=O)[C@H](NS(=O)(=O)NC2CCCCC2)C(c2ccccc2)c2ccccc2)s1 [Example 20, N-cyclohexylsulfamoyl-D-diphenylalanyl-L-prolyl-[(5-amidino-2-thienyl)methyl]amide.TFA] has a Ki of 11 pM.

With C=CCOC(=O)N[C@@H](C(=O)N1CCC[C@H]1C(=O)NCc1ccc(C(=N)N)s1)C(c1ccccc1)c1ccccc1 [Example 21, N-allyloxycarbonyl-D-diphenylalanyl-L-prolyl-[(5-amidino-2-thienyl)methyl]amide.TFA] the Ki was 17 pM.

Work on CS(=O)(=O)N[C@H](CC1CCCCC1)C(=O)N1CCC[C@H]1C(=O)NCc1ccc(C(=N)N)s1 [Example 22, N-methylsulfonyl-D-cyclohexylalanyl-L-prolyl-[(5-amidino-2-thienyl)methyl]amide.TFA] yielded a Ki of 20 pM.

For N=C(N)c1ccc(CNC(=O)[C@@H]2CCCN2C(=O)[C@@H](CC2CCCCC2)NS(=O)(=O)Cc2ccccc2)s1 [Example 23, N-benzylsulfonyl-D-cyclohexylalany-L-prolyl-[(5-amidino-2-thienyl)methyl]amide.TFA], the Ki was 30 pM.

Work on N=C(N)c1ccc(CNC(=O)[C@@H]2CCCN2C(=O)[C@@H](CC2CCCCC2)NS(=O)(=O)NC2CCCCC2)s1 [Example 24, N-cyclohexylsulfamoyl-D-cyclohexylalanyl-L-prolyl-[(5-amidino-2-thienyl)methyl]amide.TFA] yielded a Ki of 24 pM.

CNS(=O)(=O)N[C@H](CC1CCCCC1)C(=O)N1CCC[C@H]1C(=O)NCc1ccc(C(=N)N)s1 [Example 25, N-methylsulfamoyl-D-cyclohexylalanyl-L-prolyl-[(5-amidino-2-thienyl)methyl]amide.TFA] showed a Ki of 53 pM.

Work on CS(=O)(=O)N[C@@H](C(=O)N1CCC[C@H]1C(=O)NCc1csc(C(=N)N)c1)C1CCCCC1 [Example 26, N-methylsulfonyl-D-cyclohexylglycinyl-L-prolyl-[(5-amidino-3-thienyl)methyl]amide.TFA] yielded a Ki of 4600 pM.

COC(=O)N[C@@H](C(=O)N1CCC[C@H]1C(=O)NCc1csc(C(=N)N)c1)C1CCCCC1 [Example 27, N-methoxycarbonyl-D-cyclohexylglycinyl-L-prolyl-[(5-amidino-3-thienyl)methyl]amide.TFA] was tested, and the Ki was 13700 pM.

Compound CC(C)(C)OC(=O)CN[C@@H](C(=O)N1CCC[C@H]1C(=O)NCc1ccc(C(=N)N)s1)C(c1ccccc1)c1ccccc1 [Example 28, N-(t-butoxycarbonyl)methyl-D-diphenylalanyl-L-prolyl-[(5-amidino-2-thienyl)methyl]amide.2AcOH] has a Ki of 62 pM.

In the case of CN(CC(=O)O)[C@@H](C(=O)N1CCC[C@H]1C(=O)NCc1ccc(C(=N)N)s1)C(c1ccccc1)c1ccccc1 [Example 30, N-methyl-N-carboxymethyl-D-diphenylalanyl-L-prolyl-[(5-amidino-2-thienyl)methyl]amide.2TFA], the Ki is reported as 3 pM.

In the case of N=C(N)c1ccc(CNC(=O)[C@@H]2CCCN2C(=O)[C@H](NS(=O)(=O)O)C(c2ccccc2)c2ccccc2)s1 [Example 31, N-hydroxysulfonyl-D-diphenylalanyl-L-prolyl-[(5-amidino-2-thienyl)methyl]amide.TFA], the Ki is reported as 100 pM.

For CS(=O)(=O)N[C@@H](C(=O)N1CC[C@H]1C(=O)NCc1ccc(C(=N)N)s1)C(c1ccccc1)c1ccccc1 [Example 32, N-methylsulfonyl-D-diphenylalanyl-L-azetidine-2-carboxyl-[(5-amidino-2-thienyl)methyl]amide.TFA], the Ki was 53 pM.

Work on Cc1sc(CNC(=O)[C@@H]2CCCN2C(=O)[C@H](NS(C)(=O)=O)C(c2ccccc2)c2ccccc2)cc1C(=N)N [Example 33, N-methylsulfonyl-D-diphenylalanyl-L-prolyl-[(4-amidino-5-methyl-2-thienyl)methyl]amide.TFA] yielded a Ki of 120 pM.

For CS(=O)(=O)N[C@@H](C(=O)N1CCC[C@H]1C(=O)NCc1ccc(C(=N)N)o1)C(c1ccccc1)c1ccccc1 [Example 34, N-methylsulfonyl-D-diphenylalanyl-L-prolyl-[(5-amidino-2-furanyl)methyl]amide.TFA], the Ki was 1400 pM.
